Patent US7026454B1, “Neuroendocrine marker of prostate cancer and method for producing same” (University of Kansas Medical Center, priority 1998, dated 2006)
Blank lines part the entries; values can stand above or below the molecule they belong to. Where no end group is shown, it is not given here.

Legend:
[1] = system: PC-3M cells; test: 3H-thymidine incorporation (DNA synthesis) in PC-3M cells; type: cell-based; settings: 24 hours, FIG. 1
Protocol: FIG. 1 illustrates the effect of exogenously added prostatic NEM on DNA synthesis of an aggressive prostate cancer (PC-3M) cell line. To obtain the results shown in FIG. 1, PC-3M cells were seeded at a density of 10,000 cells per well and incubated overnight in the complete medium. The cells were then washed with and incubated in serum-free medium containing the agents and 0.5 μCi of 3H-thymidine for 24 hours. At the end of incubation, the cells were washed three times with PBS-1 μM thymidine and the incorporated radioactivity was determined in TCA-precipitable fraction.
If NEM-induced DNA synthesis may influence proliferative activity of a prostate tumor and other cancer cells, then its immunoneutralization should reduce the growth. This hypothesis was tested by studying the rate of 3H-thymidine incorporation in PC-3M prostate cancer cells. The cells were treated either with non-immune antiserum or anti-NEM antiserum at a final dilution of 1:50.

[2] = system: OVCA-5; test: Growth of non-prostate cancer cells (bone-derived cell lines); type: cell-based
[3] = system: PC-3M cells; test: Matrigel in vitro invasion of PC-3M cells; type: cell-based
Protocol: FIG. 2 illustrates the effect of NEM on in vitro invasion of PC-3M cells. The experiment used 3 well Matrigel invasion chambers (Becton Dickinson, Bedford, Mass.). Approximately 200,000 PC-3M cells were seeded in the upper chamber in RPMI 1640 medium containing 0.1% BSA (Sigma, St. Louis), 4 mM L-glutamine, 100 IU/ml penicillin G and 100 ug/ml streptomycin. The lower chamber medium contained chemoattractant medium consisting of 80% complete medium (RPMI 1640, 12% horse serum, 4% […] fetal calf serum, 4 mM L-glutamine, 100 IU/ml penicillin G and […]). Different concentrations of NEM or conditioned media from NEM-PC3-M cells that express NEM (dilutions ranging from 1 to 5) were added to the upper chamber. The experiments were carried out for 72 hours. At the end of the incubation period the Matrigel was scraped off using cotton swabs and the top insert was fixed and stained using Diff Quick staining (Dade Diagnostics, Aguada, PR). The relative invasive potential was determined by normalizing for cell growth. This was done by plating 100,000 cells in six well dishes in chemoattractant medium and determining the relative growth of cells after 72 hours. The number of cells per 100×field were expressed as mean +/−SEM.
FIG. 4 illustrates the effect of the anti-NEM antiserum on invasion of PC-3M cells. […]

[4] = system: NEM receptors on prostate cancer cells; test: Binding of NEM to its receptors on prostate cancer cells
[5] = system: prostate cancer cell lines; settings: background statement; cited from earlier work
[6] = target: NEM receptor on prostate cancer cells; test: cell-based or functional assay

Molecule: NEM: novel neuroendocrine growth factor or marker isolated from prostate cancer cells; amino acid SEQ ID NO: 6 expressed in PC-3M cells (RTCVLGYLHIVPEFIESQLLGLLSPVSL; listed as Homo sapiens)
concentration at which the increase in DNA synthesis was significant ([1]; PC-3M cells): ≥ 10 nM
3H-thymidine incorporation (DNA synthesis) ([1]; exogenously added NEM, serum-free medium): stimulated 3H-thymidine incorporation in a dose-dependent fashion
growth of non-prostate cancer cells [2]: stimulates the growth
invasiveness of PC-3M cells ([3]; all concentrations of NEM significant vs 0, P<0.05, FIG. 2): in a dose-dependent fashion significantly increases the invasiveness
increase in invasiveness ([3]; from 0M to 10^-6M NEM, 72 hours, FIG. 2): 70%
receptor binding affinity [4]: high affinity (low nM)

Molecule: Pindobind
growth of prostate cancer cell lines [5]: inhibit the growth

3H-thymidine incorporation (DNA synthesis) in PC-3M cells [6]: > 10 nM
in vitro Matrigel invasion of PC-3M cells [6]: 70%
Molecule: RTCVLGYLHIVPEFIESQLLGLLSPVSL (ligand, also: 125I-labelled form used in RIA) [neuroendocrine growth factor or marker (NEM)]
